In US20200179428A1, “CYCLIC PHOSPHATE SUBSTITUTED NUCLEOSIDE DERIVATIVES AND METHODS OF USE THEREOF FOR THE TREATMENT OF VIRAL DISEASES” (priority 2016, published 2020):

What was measured:
replicon cells (1b-Con1) = assay: Replicon activity assay (replicon RNA level by real-time RT-PCR, Taqman); type: cell-based; conditions: HCV replicon genotype 1b; read-out: EC50 (1b) Range
Outline: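 HCV 1b-Con1 replicon cells treated 3 days with 10-point twofold serial dilutions in triplicate (0.5% DMSO, 10% FBS); replicon RNA quantified by Taqman real-time RT-PCR normalised to GAPDH, EC50 derived. Cytotoxicity by MTS read-out at day 3 on identically treated cells.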

replicon cells = assay: Cytotoxicity MTS assay (CellTiter 96 Aqueous One Solution) in replicon cells; type: cell-based; conditions: EDU; read-out: CC50 (EDU) Range

SMILES	EC50 (replicon cells (1b-Con1)) [µM]	CC50 (replicon cells) [µM]
CC(C)OC(=O)C(C)CCOP1(=O)OC[C@H]2O[C@@H](n3cnc4c(N)ncnc43)[C@](C)(Cl)[C@@H]2O1 (single isomer, unassigned) [Compound 35B]	≤ 0.25	> 50
C#C[C@]1(C)[C@@H]2OP(=O)(OCCC(C(=O)OC(C)C)C(=O)OC(C)C)OC[C@H]2O[C@H]1n1ccc(=O)[nH]c1=O (single isomer, unassigned) [Compound 36B]	1 to 10	> 50
CC(C)OC(=O)[C@@H](C)CCOP1(=O)OC[C@H]2O[C@@H](n3ccc(=O)[nH]c3=O)[C@](C)(Cl)[C@@H]2O1 (single isomer, unassigned) [Compound 39B2]	0.25 to 1	> 50
C#C[C@@]1(O)[C@@H]2OP(=O)(OCCC(C)C(=O)OC(C)C)OC[C@H]2O[C@H]1n1ccc(=O)[nH]c1=O (stereo partly shown) [Compound 7B]	≤ 0.25	> 50
CO[C@H](CCOP1(=O)OC[C@H]2O[C@@H](n3ccc(=O)[nH]c3=O)[C@](C)(Cl)[C@@H]2O1)C(=O)OC(C)C (stereo partly shown) [Compound 37B]	≤ 0.25	> 50
CC(C)OC(=O)C(CCOP1(=O)OC[C@H]2O[C@@H](n3ccc(=O)[nH]c3=O)[C@](C)(Cl)[C@@H]2O1)C(=O)OC(C)C (stereo partly shown) [Compound 38B]	≤ 0.25	> 50
CC(C)OC(=O)C(C)CCOP1(=O)OC[C@H]2O[C@@H](n3ccc(=O)[nH]c3=O)[C@](C)(Cl)[C@@H]2O1 (stereo partly shown) [Compound 39B]	≤ 0.25	> 50
C#C[C@]1(C)[C@@H]2O[P@@](=O)(OCC(CC(=O)OC(C)C)N(C)C(=O)OC(C)(C)C)OC[C@H]2O[C@H]1n1ccc(=O)[nH]c1=O (stereo partly shown) [Compound 74A2]	> 10	> 50
